Activity calls are given as the source filed them. The calls are words filed in the database; no cut-off is given here.
Columns and labels:
[1] = tested on: Kasumi 1; experiment: Induction of cell cycle arrest in human Kasumi 1 cells assessed as increase in accumulation of cells at S phase at 0.5 uM incubated for 24 hrs by propidium iodide staining based flow cytometric analysis (reference value: 39.77%); format: functional
[2] = tested on: WEHI-3; experiment: Induction of apoptosis in mouse WEHI-3 cells assessed as increase in cleaved PARP-1 level incubated for 72 hrs by Western blotting analysis; format: functional, cell-based; conditions: dose 0.625-5 µM
[3] = tested on: WEHI-3; experiment: Inhibition of colony formation in mouse WEHI-3 cells incubated for 15 days by crystal violet staining based analysis; format: functional, cell-based; conditions: dose 0.5-1 µM, time 15.0 day
[4] = tested on: HCT-116; experiment: Anti-cancer activity against human HCT-116 cells assessed as reduction in size of spheroids incubated for 24 hrs; format: functional, cell-based
[5] = tested on: Kasumi 1; experiment: Disruption of pyruvate metabolic pathway in human Kasumi 1 cells by KEGG enrichment analysis; format: functional, cell-based
[6] = tested on: Kasumi 1; experiment: Induction of cell cycle arrest in human Kasumi 1 cells assessed as increase in P21 level at 0.15 to 1.2 uM incubated for 24 hrs by Western blotting analysis; format: functional, cell-based; conditions: dose 0.15-1.2 µM
[7] = tested on: HCT-15; experiment: Antiproliferative activity against human HCT-15 cells assessed as inhibition of cell proliferation incubated for 72 hrs by CCK-8 assay; format: functional, cell-based; conditions: HCT-15, 72 h
[8] = Induction of cell cycle arrest in mouse WEHI-3 cells assessed as increase in accumulation of cells at S phase at 0.25 uM incubated for 24 hrs by propidium iodide staining based flow cytometric analysis (reference value: 51.22%); format: functional
[9] = tested on: Kasumi 1; experiment: Induction of cell differentiation in human Kasumi 1 cells assessed as lobulated nuclei at 1 uM incubated for 24 hrs by giemsa-Wrights staining based analysis; format: functional
[10] = tested on: HL-60; experiment: Antiproliferative activity against human HL-60 cells assessed as inhibition of cell proliferation incubated for 72 hrs by CCK-8 assay; format: functional, cell-based; conditions: HL-60, 72 h
[11] = tested on: Kasumi 1; experiment: Induction of […] in human Kasumi 1 cells assessed as increase in p-RIPK3 level at 0.625 to 5 uM incubated for 72 hrs by Western blotting analysis; format: functional, cell-based; conditions: dose 0.625-5 µM
[12] = tested on: NCI-H358; experiment: Antiproliferative activity against human NCI-H358 cells assessed as inhibition of cell proliferation incubated for 72 hrs by CCK-8 assay; format: functional, cell-based; conditions: NCI-H358, 72 h
[13] = tested on: MOLM-13; experiment: Antiproliferative activity against human MOLM-13 cells assessed as inhibition of cell proliferation incubated for 72 hrs by CCK-8 assay; format: functional, cell-based; conditions: MOLM-13, 72 h
[14] = tested on: HCT-116; experiment: Anti-cancer activity against human HCT-116 cells assessed as reduction in number of spheroids incubated for 24 hrs; format: functional, cell-based
[15] = tested on: PANC-1; experiment: Antiproliferative activity against human PANC-1 cells assessed as inhibition of cell proliferation incubated for 72 hrs by CCK-8 assay; format: functional, cell-based; conditions: PANC-1, 72 h
[16] = tested on: SW1990; experiment: Antiproliferative activity against human SW1990 cells assessed as inhibition of cell proliferation incubated for 72 hrs by CCK-8 assay; format: functional, cell-based; conditions: SW1990, 72 h
[17] = tested on: Jurkat; experiment: Antiproliferative activity against human Jurkat cells assessed as inhibition of cell proliferation incubated for 72 hrs by CCK-8 assay; format: functional, cell-based
[18] = Antiproliferative activity against mouse WEHI-3 cells assessed as inhibition cell proliferation incubated for 72 hrs by MTT assay; format: functional, cell-based; conditions: WEHI-3, 72 h
[19] = tested on: WEHI-3; experiment: Induction of cell cycle arrest in mouse WEHI-3 cells assessed as increase in P53 level at 0.15 to 1.2 uM incubated for 24 hrs by Western blotting analysis; format: functional, cell-based; conditions: dose 0.15-1.2 µM
[20] = tested on: HCT-116; experiment: Antiproliferative activity against human HCT-116 cells assessed as inhibition of cell proliferation incubated for 72 hrs by CCK-8 assay; format: functional, cell-based; conditions: HCT-116, 72 h
[21] = tested on: Kasumi 1; experiment: Induction of pyroptosis in human Kasumi 1 cells assessed as effect on cleaved N-GSDMB at 0.6 to 2.5 uM incubated for 24 hrs by Western blotting analysis; format: functional, cell-based; conditions: dose 0.6-2.5 µM
[22] = tested on: Kasumi 1; experiment: Induction of cell cycle arrest in human Kasumi 1 cells assessed as increase in accumulation of cells at G2 phase at 0.25 uM incubated for 24 hrs by propidium iodide staining based flow cytometric analysis (reference value: 9.82%); format: functional
[23] = tested on: Kasumi 1; experiment: Disruption of carbon metabolic pathway in human Kasumi 1 cells by KEGG enrichment analysis; format: functional, cell-based
[24] = Induction of cell cycle arrest in mouse WEHI-3 cells assessed as increase in accumulation of cells at S phase at 0.5 uM incubated for 24 hrs by propidium iodide staining based flow cytometric analysis (reference value: 51.22%); format: functional
[25] = tested on: Kasumi 1; experiment: Induction of […] in human Kasumi 1 cells assessed as increase in p-MLKL level at 0.625 to 5 uM incubated for 72 hrs by Western blotting analysis; format: functional, cell-based; conditions: dose 0.625-5 µM
[26] = Induction of cell cycle arrest in mouse WEHI-3 cells assessed as increase in accumulation of cells at S phase at 1 uM incubated for 24 hrs by propidium iodide staining based flow cytometric analysis (reference value: 51.22%); format: functional
[27] = tested on: Kasumi 1; experiment: Induction of cell cycle arrest in human Kasumi 1 cells assessed as increase in accumulation of cells at S phase at 1 uM incubated for 24 hrs by propidium iodide staining based flow cytometric analysis (reference value: 39.77%); format: functional
[28] = tested on: Kasumi 1; experiment: Induction of cell cycle arrest in human Kasumi 1 cells assessed as increase in accumulation of cells at G1 phase at 1 uM incubated for 24 hrs by propidium iodide staining based flow cytometric analysis (reference value: 50.41%); format: functional
[29] = tested on: WEHI-3; experiment: Induction of cell differentiation in mouse WEHI-3 cells assessed as increase in CD11B expression by Western blotting analysis; format: functional, cell-based; conditions: dose 0.125-1 µM
[30] = tested on: Kasumi 1; experiment: Induction of apoptosis in human Kasumi 1 cells assessed as increase in cleaved PARP-1 level incubated for 72 hrs by Western blotting analysis; format: functional, cell-based; conditions: dose 0.625-5 µM
[31] = tested on: Kasumi 1; experiment: Induction of cell cycle arrest in human Kasumi 1 cells assessed as increase in P53 level at 0.15 to 1.2 uM incubated for 24 hrs by Western blotting analysis; format: functional, cell-based; conditions: dose 0.15-1.2 µM
[32] = tested on: Kasumi 1; experiment: Disruption of citrate metabolic pathway in human Kasumi 1 cells by KEGG enrichment analysis; format: functional, cell-based
[33] = Antiproliferative activity against human SKNO-1 cells assessed as inhibition of cell proliferation incubated for 72 hrs by CCK-8 assay; format: functional, cell-based; conditions: SKNO-1, 72 h
[34] = Induction of cell cycle arrest in mouse WEHI-3 cells assessed as increase in accumulation of cells at G1 phase at 0.25 uM incubated for 24 hrs by propidium iodide staining based flow cytometric analysis (reference value: 46.93%); format: functional
[35] = Induction of cell cycle arrest in mouse WEHI-3 cells assessed as increase in accumulation of cells at G1 phase at 1 uM incubated for 24 hrs by propidium iodide staining based flow cytometric analysis (reference value: 46.93%); format: functional
[36] = Induction of cell cycle arrest in mouse WEHI-3 cells assessed as increase in accumulation of cells at G1 phase at 0.5 uM incubated for 24 hrs by propidium iodide staining based flow cytometric analysis (reference value: 46.93%); format: functional
[37] = tested on: WEHI-3; experiment: PANoptosis in mouse WEHI-3 cells assessed as cell death at 1.2 uM incubated for 72 hrs by optical microscopic analysis; format: functional, cell-based

For `C=C1C[C@@H]2[C@@H](CC[C@]3(C)[C@@H](O[Si](C(C)C)(C(C)C)C(C)C)CC[C@@H]23)OC1=O`, the Activity [1] was 31.64%, the Activity [2] was “Dose-dependent-effect” and the inhibition [3] was “Dose-dependent-effect”. The Activity [4] was “Active”, the Activity [5] was “Active” and the Activity [6] was “Active”. The IC50 [7] was 8900 nM, the Activity [8] was 46.46% and the Activity [9] was “Active”. The IC50 [10] was 900 nM, the Activity [11] was “Active” and the IC50 [12] was 1780 nM. The IC50 [13] was 1530 nM, the Activity [14] was “Active” and the IC50 [15] was 1310 nM. The IC50 [16] was > 10000 nM, the IC50 [17] was 2600 nM and the IC50 [18] was 420 nM. For the same molecule, the Activity [19] was “Active”, the IC50 [20] was 1930 nM and the Activity [21] was “Active”. For the same molecule, the Activity [22] was 10.77%, the Activity [23] was “Active” and the Activity [24] was 43.52%. For the same molecule, the Activity [25] was “Active”, the Activity [26] was 32.07% and the Activity [27] was 22.53%. For the same molecule, the Activity [28] was 58.52%, the Activity [29] was “Dose-dependent-effect” and the Activity [30] was “Dose-dependent-effect”. The Activity [31] was “Active”, the Activity [32] was “Active” and the IC50 [33] was 1240 nM. For the same molecule, the Activity [34] was 51.78%, the Activity [35] was 64.54% and the Activity [36] was 53.15%. For the same molecule, the Activity [37] was “Active”.

— ChEMBL document CHEMBL6115002, “Discovery of novel sitolactone derivative leading to PANoptosis and differentiation of acute myeloid leukemia cells” (Eur J Med Chem, 2025)
